Assay results published in patent publication US11111232B2, “Substituted cyclobutylpyridine and cyclobutylpyrimidine compounds as indoleamine 2,3-dioxygenase (IDO) inhibitors” (MERCK SHARP & DOHME CORP., priority 2017, dated 2021).

Assays:
IDO1 = IDO1 (Homo sapiens, UniProt P14902); assay: IDO1 cellular assay in Hela cells stimulated with IFNγ; assay type: cell-based; conditions: IFNγ 100 ng/mL, 300 uM L-tryptophan, about 48 hours, fluorescence readout
Method: IDO1 Cellular Assay in Hela Cells Stimulated with IFNγ
Hela cells were cultured in complete Hela culture medium (90% EMEM, 10% heat-inactivated fetal bovine serum) and expanded to about 1×10^9 cells. The cells were then collected and frozen down at 1×10^7 cells/vial in 1 mL frozen medium (90% complete Hela culture medium, 10% DMSO)
Compounds to be tested were serially diluted in ten 3-fold steps in DMSO starting from 10 mM DMSO stocks in Echo low volume plate(s).
Frozen Hela cells were thawed and transferred into Hela assay medium (99% complete Hela culture medium, 1% Pen/Strep) with 20 mL medium/vial of cells. The cells were spun down at 250 g in a table top centrifuge for 5 min and suspended in same volume of Hela assay medium. […] Sterile L-tryptophan were added to the cells with final concentration of 300 uM L-tryptophan. A small aliquot (2 mL/plate) of Hela cells were set aside and were not treated with IFNγ, to serve as the Max-E control.
Hela cells with and without IFNγ were dispensed to the respective wells of 384-well assay plates containing the compounds. The plates were incubated for about 48 hours at a 37° C., 5% CO2 incubator. Afterwards, […] of 0.5 M methyl isonipecotate in dimethyl sulfoxide were added into each well and the plates were sealed and incubated at 37° C. without CO2 overnight. The plates were centrifuged for 1 min at 200×g. The resulting fluorescence was measured in a Spectramax plate reader (Molecular Devices) with a 400 nm excitation filter and a 510 nm emission filter.
Potencies were calculated by linear least squares fit to the four parameter logistic IC50 equation.

TDO = target: T1, TDO (Homo sapiens, UniProt P48775); assay: TDO cellular assay in frozen SW48 cells; assay type: cell-based; conditions: 300 uM L-tryptophan, about 48 hours, fluorescence readout
T1 construct: endogenous in cells; host or cells: SW48 cells (A2780 cells as low-TDO control)
T1 sequence (P48775 whole entry): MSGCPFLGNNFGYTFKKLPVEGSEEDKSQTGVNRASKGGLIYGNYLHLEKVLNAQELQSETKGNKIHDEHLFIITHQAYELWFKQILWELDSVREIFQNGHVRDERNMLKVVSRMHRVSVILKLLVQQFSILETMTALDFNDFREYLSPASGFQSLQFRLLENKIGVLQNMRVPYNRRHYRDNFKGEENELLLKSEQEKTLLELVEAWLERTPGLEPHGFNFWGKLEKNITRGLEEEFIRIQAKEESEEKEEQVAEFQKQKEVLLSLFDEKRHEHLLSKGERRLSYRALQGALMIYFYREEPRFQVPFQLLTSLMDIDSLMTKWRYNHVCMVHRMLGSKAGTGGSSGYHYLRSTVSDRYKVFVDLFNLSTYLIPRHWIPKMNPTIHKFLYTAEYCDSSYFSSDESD
Method: TDO Cellular Assay in Frozen SW48 Cells
SW48 cells were cultured in complete RPMI culture medium (90% RPMI, 10% heat-inactivated fetal bovine serum).
Compounds to be tested were serially diluted in ten 3-fold steps in DMSO starting from 10 mM DMSO stocks in Echo low volume plate(s). […] The cells were spun down at 350 g in a table top centrifuge for 5 minutes and suspended in same volume of RPMI assay medium. […] Sterile L-tryptophan (Sigma, Cat #T0254) was added to the cells with final concentration of 300 uM.
SW48 and A2780 cells were dispensed to the respective wells of 384-well assay plates containing the compounds. The plates were incubated for about 48 hours at a 37° C., 5% CO2 incubator. Afterwards, 12 μL of 0.5 M ethyl isonipecotate (Sigma Aldrich, Cat #E33505) in dimethyl sulfoxide were added into each well and the plates were sealed and incubated at 37° C. without CO2 overnight. The plates were centrifuged for 1 minute at 200×g. The resulting fluorescence was measured in a Spectramax plate reader (Molecular Devices) with a 400 nm excitation filter and a 510 nm emission filter.
The fluorescence intensity of each well was corrected for the background observed in wells with A2780 cells and was expressed as a fraction of the intensity observed in wells of SW48 cells and DMSO only. Potencies were calculated by linear least squares fit to the four parameter logistic IC50 equation.

Chain of IDO1 (P14902 whole entry): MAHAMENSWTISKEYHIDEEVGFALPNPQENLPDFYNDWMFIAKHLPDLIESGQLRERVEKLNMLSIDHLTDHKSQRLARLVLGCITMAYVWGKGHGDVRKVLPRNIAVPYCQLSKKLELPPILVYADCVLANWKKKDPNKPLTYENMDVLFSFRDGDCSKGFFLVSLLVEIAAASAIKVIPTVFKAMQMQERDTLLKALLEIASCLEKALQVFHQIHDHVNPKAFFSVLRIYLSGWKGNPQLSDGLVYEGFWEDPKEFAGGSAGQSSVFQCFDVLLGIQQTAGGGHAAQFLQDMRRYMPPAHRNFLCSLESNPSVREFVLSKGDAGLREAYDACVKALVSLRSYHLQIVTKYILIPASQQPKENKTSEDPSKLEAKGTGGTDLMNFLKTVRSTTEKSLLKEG

Row | IC50 (IDO1) | IC50 (TDO) | Structure (SMILES)
1 | 3 nM | ≥ 10000 nM | O=C(Nc1ccc(C2(C(=O)NCCC(F)(F)F)CCC2)cn1)c1cccc(Cl)c1 [Example 3, 3-chloro-N-(5-{1-[(3,3,3-trifluoropropyl)carbamoyl]cyclobutyl}pyridin-2-yl)benzamide]
2 | 151 nM | ≥ 10000 nM | CCCNC(=O)C1(c2ccc(NC(=O)c3cccc(Cl)c3)nc2)CCC1 [Example 4, 3-chloro-N-{5-[1-(propylcarbamoyl)cyclobutyl]pyridin-2-yl}benzamide]
3 | 94 nM | ≥ 10000 nM | O=C(Nc1ccc(C2(C(=O)Nc3ccc(F)nc3)CCC2)cn1)c1cccc(Cl)n1 [Example 6, 6-chloro-N-(5-{1-[(6-fluoropyridin-3-yl)carbamoyl]cyclobutyl}pyridin-2-yl)pyridine-2-carboxamide]
4 | 43 nM | ≥ 10000 nM | Cc1cccc(C(=O)Nc2ccc(C3(C(=O)Nc4ccc(F)nc4)CCC3)cn2)n1 [Example 8, N-(5-{1-[(6-fluoropyridin-3-yl)carbamoyl]cyclobutyl}pyridin-2-yl)-6-methylpyridine-2-carboxamide]
5 | 56 nM | ≥ 10000 nM | O=C(Nc1ccc(C2(C(=O)Nc3ccc(F)cc3)CCC2)cn1)C1CCC(F)(F)CC1 [Example 9, 4,4-difluoro-N-(5-{1-[(4-fluorophenyl)carbamoyl]cyclobutyl}pyridin-2-yl)cyclohexane-1-carboxamide]
6 | 67 nM | ≥ 10000 nM | N#C[C@@H]1CCC[C@H](C(=O)Nc2ccc(C3(C(=O)Nc4ccc(F)cc4)CCC3)cn2)C1 [Example 10, (1S,3R)-3-cyano-N-(5-{1-[(4-fluorophenyl)carbamoyl]cyclobutyl}pyridin-2-yl)cyclohexane-1-carboxamide]
7 | 96 nM | ≥ 10000 nM | CC(C)(C)CCC(=O)Nc1ccc(C2(C(=O)Nc3ccc(F)cc3)CCC2)cn1 [Example 11, 1-{6-[(4,4-dimethylpentanoyl)amino]pyridin-3-yl}-N-(4-fluorophenyl)cyclobutane-1-carboxamide]
8 | 227 nM | ≥ 10000 nM | O=C(CCC1CC1)Nc1ccc(C2(C(=O)Nc3ccc(F)nc3)CCC2)cn1 [Example 12, 1-{6-[(3-cyclopropylpropanoyl)amino]pyridin-3-yl}-N-(6-fluoropyridin-3-yl)cyclobutane-1-carboxamide]
9 | 236 nM | ≥ 10000 nM | N#C[C@@H]1CCC[C@@H](C(=O)Nc2ccc(C3(C(=O)Nc4ccc(F)cc4)CCC3)cn2)C1 [Example 13, (1R,3R)-3-cyano-N-(5-{1-[(4-fluorophenyl)carbamoyl]cyclobutyl}pyridin-2-yl)cyclohexane-1-carboxamide]
10 | 14 nM | ≥ 10000 nM | O=C(Nc1ccc(C2(C(=O)Nc3ccc(F)cc3)CCC2)cn1)c1cc(Cl)ccc1F [Example 16, 5-chloro-2-fluoro-N-(5-{1-[(4-fluorophenyl)carbamoyl]cyclobutyl}pyridin-2-yl)benzamide]
11 | 103 nM | ≥ 10000 nM | CC(C)(C)OC(=O)Nc1ccc(C2(C(=O)Nc3ccc(F)cc3)CCC2)cn1 [Example 19, tert-butyl (5-{1-[(4-fluorophenyl)carbamoyl]cyclobutyl}pyridin-2-yl)carbamate]
12 | 94 nM | ≥ 10000 nM | O=C(Nc1ccc(C2(C(=O)Nc3ccc(F)cc3)CCC2)cn1)c1c(F)ccc(Cl)c1F [Example 21, 3-chloro-2,6-difluoro-N-(5-{1-[(4-fluorophenyl)carbamoyl]cyclobutyl}pyridin-2-yl)benzamide]
13 | 13 nM | ≥ 10000 nM | O=C(Nc1ccc(C2(C(=O)Nc3ccc(F)cc3)CCC2)cn1)c1cc(Cl)ccn1 [Example 26, 4-chloro-N-(5-{1-[(4-fluorophenyl)carbamoyl]cyclobutyl}pyridin-2-yl)pyridine-2-carboxamide]
14 | 30 nM | ≥ 10000 nM | O=C(Nc1ccc(C2(C(=O)Nc3ccc(F)cc3)CCC2)cn1)c1cncc(F)c1 [Example 28, 5-fluoro-N-(5-{1-[(4-fluorophenyl)carbamoyl]cyclobutyl}pyridin-2-yl)pyridine-3-carboxamide]
15 | 145 nM | ≥ 10000 nM | O=C(Nc1ccc(C2(C(=O)Nc3ccc(F)cc3)CCC2)cn1)N1CCCC1 [Example 31, N-(5-{1-[(4-fluorophenyl)carbamoyl]cyclobutyl}pyridin-2-yl)pyrrolidine-1-carboxamide]
16 | 174 nM | ≥ 10000 nM | N#Cc1cncc(C(=O)Nc2ccc(C3(C(=O)Nc4ccc(F)cc4)CCC3)cn2)c1 [Example 32, 5-cyano-N-(5-{1-[(4-fluorophenyl)carbamoyl]cyclobutyl}pyridin-2-yl)pyridine-3-carboxamide]
17 | 1600 nM | ≥ 10000 nM | O=C(Nc1ccc(C2(C(=O)NC3CCC(F)(F)CC3)CCC2)cn1)c1cncc(Cl)c1 [Example 33, 5-Chloro-N-(5-(1-((4,4-difluorocyclohexyl)carbamoyl)cyclobutyl)pyridin-2-yl)nicotinamide]
18 | 104 nM | ≥ 10000 nM | O=C(Nc1ccc(C2(C(=O)Nc3ccc(F)cn3)CCC2)cn1)c1cncc(Cl)c1 [Example 34, 5-chloro-N-(5-{1-[(5-fluoropyridin-2-yl)carbamoyl]cyclobutyl}pyridin-2-yl)pyridine-3-carboxamide]
19 | 473 nM | ≥ 10000 nM | O=C(NC1CCCCC1)c1ccc(C2(C(=O)Nc3ccc(F)cc3)CCC2)cn1 [Example 35, N-cyclohexyl-5-(1-((4-fluorophenyl)carbamoyl)cyclobutyl)picolinamide]
20 | 921 nM | ≥ 10000 nM | O=C(NC1(c2ccc(NC(=O)c3ncco3)cn2)CCC1)c1ccc(Cl)nc1 [Example 39, N-(6-(1-(6-chloronicotinamido)cyclobutyl)pyridin-3-yl)oxazole-2-carboxamide]
21 | 280 nM | ≥ 10000 nM | O=C(NC1(c2ccc(NC(=O)c3nccs3)cn2)CCC1)c1ccc(Cl)nc1 [Example 40, 6-chloro-N-(1-{5-[(1,3-thiazole-2-carbonyl)amino]pyridin-2-yl}cyclobutyl)pyridine-3-carboxamide]
22 | 377 nM | ≥ 10000 nM | O=C(Nc1ccc(C2(NC(=O)c3ccc(Cl)nc3)CCC2)nc1)c1ccnc(Cl)c1 [Example 43, 6-chloro-N-(1-{5-[(2-chloropyridine-4-carbonyl)amino]pyridin-2-yl}cyclobutyl)pyridine-3-carboxamide]
23 | 131 nM | ≥ 10000 nM | O=C(Nc1ccc(C2(NC(=O)c3ccc(Cl)nc3)CCC2)nc1)c1cncc(Cl)c1 [Example 44, 5-chloro-N-(6-{1-[(6-chloropyridine-3-carbonyl)amino]cyclobutyl}pyridin-3-yl)pyridine-3-carboxamide]
24 | 469 nM | ≥ 10000 nM | O=C(Nc1ccc(C2(NC(=O)c3ccc(Cl)nc3)CCC2)nc1)c1ccnc(C(F)(F)F)c1 [Example 45, 6-chloro-N-[1-(5-{[2-(trifluoromethyl)pyridine-4-carbonyl]amino}pyridin-2-yl)cyclobutyl]pyridine-3-carboxamide]
25 | 1060 nM | ≥ 10000 nM | Cc1cc(C(=O)Nc2ccc(C3(NC(=O)c4ccc(Cl)nc4)CCC3)nc2)ccn1 [Example 46, 6-chloro-N-(1-{5-[(2-methylpyridine-4-carbonyl)amino]pyridin-2-yl}cyclobutyl)pyridine-3-carboxamide]
26 | 2000 nM | ≥ 10000 nM | N#Cc1ccc(C(=O)Nc2ccc(C3(NC(=O)c4ccc(Cl)nc4)CCC3)nc2)cc1 [Example 47, 6-chloro-N-(1-{5-[(4-cyanobenzene-1-carbonyl)amino]pyridin-2-yl}cyclobutyl)pyridine-3-carboxamide]
27 | 35 nM | ≥ 10000 nM | N#Cc1cccc(C(=O)Nc2ccc(C3(NC(=O)c4ccc(Cl)nc4)CCC3)nc2)c1 [Example 48, 6-chloro-N-(1-{5-[(3-cyanobenzene-1-carbonyl)amino]pyridin-2-yl}cyclobutyl)pyridine-3-carboxamide]
28 | 540 nM |  | N#Cc1cccc(C(=O)Nc2ccc(C3(C(=O)Nc4ccc(F)cc4)CCC3)nc2O)c1 [Example 54, 3-cyano-N-(6-(1-((4-fluorophenyl)carbamoyl)cyclobutyl)-2-hydroxypyridin-3-yl)benzamide]
